This note sets out measurements from patent US20250171459A1, “2-METHYL-4',5'-DIHYDROSPIRO[PIPERIDINE-4,7'-THIENO[2,3-C]PYRAN] DERIVATIVES AS INHIBITORS OF APOL1 AND METHODS OF USING SAME” (Vertex Pharmaceuticals Incorporated, priority 2022, published 2025).

Bounds are passed on as bounds.

This assay addresses T1, APOL1 (Homo sapiens, UniProt O14791).
T1 sequence (O14791 1-398 S342G/I384M): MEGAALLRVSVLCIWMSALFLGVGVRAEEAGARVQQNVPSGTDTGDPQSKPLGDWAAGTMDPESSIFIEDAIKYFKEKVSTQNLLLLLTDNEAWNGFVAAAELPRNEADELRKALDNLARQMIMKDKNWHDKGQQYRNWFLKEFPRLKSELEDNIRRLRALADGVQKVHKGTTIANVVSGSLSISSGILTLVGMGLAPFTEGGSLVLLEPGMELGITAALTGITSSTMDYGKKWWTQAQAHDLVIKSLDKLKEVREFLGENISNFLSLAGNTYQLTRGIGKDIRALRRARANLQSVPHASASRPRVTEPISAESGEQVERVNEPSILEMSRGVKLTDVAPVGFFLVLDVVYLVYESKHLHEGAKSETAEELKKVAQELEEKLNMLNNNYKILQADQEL
As to the kind of experiment: MultiTox-Fluor Multiplex Cytotoxicity Assay in tet-inducible APOL1 T-REx-HEK293 cells (cell rescue, ratio of dead to live cells). Type of assay: cell-based. As to conditions: tet-inducible transgenic APOL1 T-REx-HEK293 cell lines, 50 ng/mL tet, 24 hours; read-out: IP50 (i.e., IC50 for cell proliferation). The procedure, abridged:
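T-REx-HEK293 cells with tet-inducible APOL1 were treated with compound (10 μM top, 10-point 3-fold dilution, duplicate) plus 50 ng/mL tetracycline for 24 h at 37° C, in DMEM with 2% tet-free FBS. MultiTox-Fluor protease signals gave a dead/live ratio, normalized to no tet (100% viability) and tet alone (0%).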
For `CCc1cc2c(s1)CCO[C@@]21CCN(C[C@H]2C[C@@H](NC(=O)CC#N)C2)[C@@H](C)C1` [Compound 334], the IC50 lay within 100 to 500 nM.
For `CCc1cc2c(s1)CCO[C@@]21CCN(C[C@H]2C[C@@H](NC(=O)C3(O)CC3)C2)[C@@H](C)C1` [Compound 335], the IC50 is below 100 nM.
The value for `CCc1cc2c(s1)CCO[C@@]21CCN(C[C@H]2C[C@@H](NC(=O)C(C)(C)C#N)C2)[C@@H](C)C1` [Compound 336] was 100 to 500 nM; that for `CCc1cc2c(s1)CCO[C@@]21CCN(C[C@H]2C[C@@H](NC(=O)CN3CCc4ccccc43)C2)[C@@H](C)C1` [Compound 337] was below 100 nM; that for `CCc1cc2c(s1)CCO[C@@]21CCN(C[C@H]2C[C@@H](NC(=O)CC3CC(F)(F)C3)C2)[C@@H](C)C1` [Compound 338] was below 100 nM.
The value for `CCc1cc2c(s1)CCO[C@@]21CCN(C[C@H]2C[C@@H](NC(=O)C(O)C(F)(F)F)C2)[C@@H](C)C1` (stereo partly shown) [Compound 339] was below 100 nM; that for `CCc1cc2c(s1)CCO[C@@]21CCN(C[C@H]2C[C@@H](NC(=O)c3ccncc3C)C2)[C@@H](C)C1` [Compound 340] was below 100 nM; that for `CCc1cc2c(s1)CCO[C@@]21CCN(C[C@H]2C[C@@H](NC(=O)C(C)S(C)(=O)=O)C2)[C@@H](C)C1` (stereo partly shown) [Compound 341] was below 100 nM.
The result for `CCc1cc2c(s1)CCO[C@@]21CCN(C[C@H]2C[C@@H](NC(=O)CS(=O)(=O)NC)C2)[C@@H](C)C1` [Compound 342] reads below 100 nM.
As for `CCc1cc2c(s1)CCO[C@@]21CCN(C[C@H]2C[C@@H](NC(=O)CS(C)(=O)=O)C2)[C@@H](C)C1` [Compound 343], the IC50 was below 100 nM.
The result for `CCc1cc2c(s1)CCO[C@@]21CCN(C[C@H]2C[C@@H](NC(=O)C3CC(C)(O)C3)C2)[C@@H](C)C1` (stereo partly shown) [Compound 344] reads below 100 nM; that for `CCc1cc2c(s1)CCO[C@@]21CCN(C[C@H]2C[C@@H](NC(=O)c3ncccc3O)C2)[C@@H](C)C1` [Compound 345], 100 to 500 nM; that for `CCc1cc2c(s1)CCO[C@@]21CCN(C[C@H]2C[C@@H](NC(=O)CC(C)(C)O)C2)[C@@H](C)C1` [Compound 346], below 100 nM.
The result for `CCc1cc2c(s1)CCO[C@@]21CCN(C[C@H]2C[C@@H](NC(=O)c3nnc(C)o3)C2)[C@@H](C)C1` [Compound 347] reads 100 to 500 nM; that for `CCc1cc2c(s1)CCO[C@@]21CCN(C[C@H]2C[C@@H](NC(=O)COC)C2)[C@@H](C)C1` [Compound 348], 100 to 500 nM; that for `CCc1cc2c(s1)CCO[C@@]21CCN(C[C@H]2C[C@@H](NC(=O)c3ccc(=O)[nH]n3)C2)[C@@H](C)C1` [Compound 349], below 100 nM.
As for `CCc1cc2c(s1)CCO[C@@]21CCN(C[C@H]2C[C@@H](NC(=O)C3(C(N)=O)CC3)C2)[C@@H](C)C1` [Compound 350], the IC50 lay in the range of 100 to 500 nM.
The value for `CCc1cc2c(s1)CCO[C@@]21CCN(C[C@H]2C[C@@H](NC(=O)CO)C2)[C@@H](C)C1` [Compound 351] was 100 to 500 nM; that for `CCc1cc2c(s1)CCO[C@@]21CCN(C[C@H]2C[C@@H](NC(=O)CC3CS(=O)(=O)C3)C2)[C@@H](C)C1` [Compound 352] was below 100 nM; that for `CCc1cc2c(s1)CCO[C@@]21CCN(C[C@H]2C[C@@H](NC(=O)CNS(=O)(=O)CC)C2)[C@@H](C)C1` [Compound 353] was below 100 nM.
In the case of `CCc1cc2c(s1)CCO[C@@]21CCN(C[C@H]2C[C@@H](NC(=O)Cn3cncn3)C2)[C@@H](C)C1` [Compound 354], the IC50 was 100 to 500 nM.
The value for `CCc1cc2c(s1)CCO[C@@]21CCN(C[C@H]2C[C@@H](NC(=O)C3CCN(C(C)=O)CC3)C2)[C@@H](C)C1` [Compound 355] was below 100 nM; that for `CCc1cc2c(s1)CCO[C@@]21CCN(C[C@H]2C[C@@H](NC(=O)CCS(C)(=O)=O)C2)[C@@H](C)C1` [Compound 356] was below 100 nM.
The value for `CCc1cc2c(s1)CCO[C@@]21CCN(C[C@H]2C[C@@H](NC(=O)C3(O)CC(O)C3)C2)[C@@H](C)C1` (stereo partly shown) [Compound 357] was below 100 nM.
The result for `CCc1cc2c(s1)CCO[C@@]21CCN(C[C@H]2C[C@@H](NC(=O)c3ccc4[nH]nnc4c3)C2)[C@@H](C)C1` [Compound 358] reads below 100 nM; that for `CCc1cc2c(s1)CCO[C@@]21CCN(C[C@H]2C[C@@H](NC(=O)C3(C)COC3)C2)[C@@H](C)C1` [Compound 359], 100 to 500 nM.
As to `CCc1cc2c(s1)CCO[C@@]21CCN(C[C@H]2C[C@@H](NC(=O)C(C)(C)N)C2)[C@@H](C)C1` [Compound 360], the IC50 was 100 to 500 nM.
The result for `CCc1cc2c(s1)CCO[C@@]21CCN(C[C@H]2C[C@@H](NC(=O)C3CNC(=O)O3)C2)[C@@H](C)C1` (stereo partly shown) [Compound 361] reads 100 to 500 nM.
As for `CCc1cc2c(s1)CCO[C@@]21CCN(C[C@H]2C[C@@H](NC(=O)C3CC(=O)N(C)C3)C2)[C@@H](C)C1` (stereo partly shown) [Compound 362], the IC50 was in the range of 100 to 500 nM.
The result for `CCc1cc2c(s1)CCO[C@@]21CCN(C[C@H]2C[C@@H](NC(=O)c3cc(CO)n[nH]3)C2)[C@@H](C)C1` [Compound 363] reads below 100 nM; that for `CCc1cc2c(s1)CCO[C@@]21CCN(C[C@H]2C[C@@H](NC(=O)CNS(C)(=O)=O)C2)[C@@H](C)C1` [Compound 364], 100 to 500 nM.
Regarding `CCc1cc2c(s1)CCO[C@@]21CCN(C[C@H]2C[C@@H](NC(=O)C(O)CO)C2)[C@@H](C)C1` (stereo partly shown) [Compound 365], the IC50 was in the range of 100 to 500 nM.
The value for `CCc1cc2c(s1)CCO[C@@]21CCN(C[C@H]2C[C@@H](NC(=O)CCN3CCCC3=O)C2)[C@@H](C)C1` [Compound 366] was 100 to 500 nM; that for `CCc1cc2c(s1)CCO[C@@]21CCN(C[C@H]2C[C@@H](NC(=O)C3CC3C(=O)N(C)C)C2)[C@@H](C)C1` (stereo partly shown) [Compound 367] was 100 to 500 nM; that for `CCc1cc2c(s1)CCO[C@@]21CCN(C[C@H]2C[C@@H](NC(=O)[C@H]3CCCO3)C2)[C@@H](C)C1` [Compound 368] was 100 to 500 nM.
The result for `CCc1cc2c(s1)CCO[C@@]21CCN(C[C@H]2C[C@@H](NC(=O)[C@@H]3CCCO3)C2)[C@@H](C)C1` [Compound 369] reads 100 to 500 nM; that for `CCc1cc2c(s1)CCO[C@@]21CCN(C[C@H]2C[C@@H](NC(=O)C(C)(O)C(F)(F)F)C2)[C@@H](C)C1` (stereo partly shown) [Compound 370], 100 to 500 nM; that for `CCCOC(=O)N[C@H]1C[C@@H](CN2CC[C@]3(C[C@@H]2C)OCCc2sc(CC)cc23)C1` [Compound 371], below 100 nM.
The value for `CCc1cc2c(s1)CCO[C@@]21CCN(C[C@H]2C[C@@H](NC(=O)Oc3ccccc3F)C2)[C@@H](C)C1` [Compound 372] was 500 to 1000 nM; that for `CCc1cc2c(s1)CCO[C@@]21CCN(C[C@H]2C[C@@H](NC(=O)OCC(C)C)C2)[C@@H](C)C1` [Compound 373] was 100 to 500 nM; that for `CCc1cc2c(s1)CCO[C@@]21CCN(C[C@H]2C[C@@H](NC(=O)OCCOC)C2)[C@@H](C)C1` [Compound 374] was 100 to 500 nM.
For the compound `CCOC(=O)N[C@H]1C[C@@H](CN2CC[C@]3(C[C@@H]2C)OCCc2sc(CC)cc23)C1` [Compound 375], the IC50 was below 100 nM.
The result for `CCc1cc2c(s1)CCO[C@@]21CCN(C[C@H]2C[C@@H](NC(=O)OC(C)C)C2)[C@@H](C)C1` [Compound 376] reads below 100 nM; that for `CCc1cc2c(s1)CCO[C@@]21CCN(C[C@H]2C[C@@H](NC(=O)Oc3ccc(F)cc3)C2)[C@@H](C)C1` [Compound 377], below 100 nM; that for `CCc1cc2c(s1)CCO[C@@]21CCN(C[C@H]2C[C@@H](NC(=O)OCC3CC3)C2)[C@@H](C)C1` [Compound 378], 100 to 500 nM.
The value for `CCc1cc2c(s1)CCO[C@@]21CCN(C[C@H]2C[C@@H](NC(=O)Oc3ccc(OC)cc3)C2)[C@@H](C)C1` [Compound 379] was below 100 nM; that for `CCc1cc2c(s1)CCO[C@@]21CCN(C[C@H]2C[C@@H](NC(=O)OCc3ccccc3)C2)[C@@H](C)C1` [Compound 380] was 100 to 500 nM.
Consider `CCc1cc2c(s1)CCO[C@@]21CCN(C[C@H]2C[C@@H](NC(=O)OCc3ccccc3Cl)C2)[C@@H](C)C1` [Compound 381], for which the IC50 was in the range of 100 to 500 nM.
The result for `CCc1cc2c(s1)CCO[C@@]21CCN(C[C@H]2C[C@@H](NC(=O)Oc3ccc(Cl)cc3)C2)[C@@H](C)C1` [Compound 382] reads below 100 nM.
In the case of `CCc1cc2c(s1)CCO[C@@]21CCN(C[C@H]2C[C@@H](NC(=O)OCC3CCCCC3)C2)[C@@H](C)C1` [Compound 383], the IC50 was in the range of 100 to 500 nM.
The value for `CCc1cc2c(s1)CCO[C@@]21CCN(C[C@H]2C[C@@H](NC(C)=O)C2)[C@@H](C)C1` [Compound 384] was 100 to 500 nM.
For `CCc1cc2c(s1)CCO[C@@]21CCN(CC2CC(NC(=O)CCCCCOCCOCCOCCOCCCCCCCl)C2)[C@@H](C)C1` (stereo partly drawn) [Compound 385, 6-[2-[2-[2-(6-chlorohexoxy)ethoxy]ethoxy]ethoxy]-N-[3-[[(2′S,4R)-2-ethyl-2′-methyl-spiro[6,7-dihydrothieno[3,2-c]pyran-4,4′-piperidine]-1′-yl]methyl]cyclobutyl]hexanamide], the IC50 was 100 to 500 nM.
